According to patent US10947223B2, “Substituted oxazines as beta-secretase inhibitors” (AMGEN INC., priority 2016, dated 2021):

Assays:
[1] = target: human recombinant BACE2 (Homo sapiens (Human), UniProt Q9Y5Z0); test: In vitro enzymatic BACE2 FRET assay; format: biochemical; settings: pH 4.5, read-out: BACE2 Enzyme IC50
Method: (§1) In Vitro Enzymatic BACE1 and BACE2 FRET (Fluorescence Resonance Energy Transfer) Assays
(§2) The cDNAs for both human recombinant BACE1 and 2 with C-terminal 6-His Tags were cloned into transient protein expression vectors, which were subsequently transfected into mammalian cell lines. These recombinant proteins were further purified using Ni-NTA affinity chromatography (Qiagen). The assay buffer used in these screens was 0.05 M acetate, pH 4.5, 8% DMSO final, 100 μM genapol (which is a nonionic detergent, below its Critical Micelle Concentration). The β-secretase enzyme (0.02 nM for BACE1 and 0.64 nM for BACE2), which was pre-incubated for one hour with the test compound, typically in about 1 uL of DMSO according to a serial dilution, was added thereto. The assay was effectively started by the addition of FRET substrate (50 nM) and the combination was incubated for one hour. The FRET assay was terminated by the addition of tris buffer, which raised the pH to neutrality, and the fluorescence was determined. The FRET substrate was a peptide with commercially available fluorophore and quencher, on opposite sides of the BACE cleavage site. The specific FRET substrate used in this assay was made by Amgen in-house. Commercially available FRET substrates, for example, the FRET substrate offered with the BACE1 FRET Assay Kit sold by ThermoFisher Scientific (Catalog Number P2985), may be used in this assay with the appropriate modifications, which are within the purview of the ability of a person with ordinary skill in the art. Proteolytic cleavage of the FRET substrate released quenching of fluorescence (excitation 488 nm and emission 590 nm).

[2] = target: T1, BACE1 (Homo sapiens (Human), UniProt P56817); test: In vitro BACE1 cell-based assay (Aβ40 in conditioned medium, HTRF); settings: Aβ40 in conditioned medium of cells expressing APP, 24 h
Method: In Vitro BACE1 Cell-Based Assay
The cell-based assay measures inhibition or reduction of Aβ40 in conditioned medium of test compound treated cells expressing amyloid precursor protein. Cells stably expressing Amyloid Precursor Protein (APP) were plated at a density of 45K cells/well in 384 well plates (Corning/BioCoat 354663). The test compounds were then added to cells in 22-point dose response concentrations with the starting concentration being 62.5 μM. The compounds were diluted from stock solutions in DMSO and the final DMSO concentration of the test compounds on cells was 0.625%. The cells were cultivated overnight at 37° C. and 5% CO2 in DMEM supplemented with 10% FBS. After 24 h of incubation with the test compounds, the conditioned media was collected and the Aβ40 levels were determined using HTRF (Homogeneous Time Resolved Fluorescence). The IC50 of the compound was calculated from the percent of control or percent inhibition of Aβ 40 as a function of the concentration of the test compound.
The HTRF to detect Aβ40 was performed in 384 well plates (Costar 3658). The antibody pair that were used to detect Aβ 40 from cell supernatants were ConfAb40 antibody (Amgen in-house) and biotinylated 6E10 (BIOLEGEND). As an alternative to ConfAb40, a commercially available antibody, Anti-beta Amyloid 1-40 antibody [BDI350] from Abcam, Cambridge, Mass. 02139-1517 (Product code: ab20068), may be used in this assay. The concentrations were 0.35 μg/mL of ConfAb40 antibody and 1.33 μg/mL of 6E10-biotinylated antibody, as well as 4.5 μg/mL of Streptavidin Allophycocyanin Conjugate (ThermoFisher Scientific) in HTRF Buffer ([…], 1% BSA, 0.5% Tween 20).
The conditioned media was incubated with above antibodies and Streptavidin Allophycocyanin Conjugate for 30-60 minutes at 23° C. The final readout was performed on Envision from PerkinElmer.
Target sequence in this assay (P56817 46-501, species assumed): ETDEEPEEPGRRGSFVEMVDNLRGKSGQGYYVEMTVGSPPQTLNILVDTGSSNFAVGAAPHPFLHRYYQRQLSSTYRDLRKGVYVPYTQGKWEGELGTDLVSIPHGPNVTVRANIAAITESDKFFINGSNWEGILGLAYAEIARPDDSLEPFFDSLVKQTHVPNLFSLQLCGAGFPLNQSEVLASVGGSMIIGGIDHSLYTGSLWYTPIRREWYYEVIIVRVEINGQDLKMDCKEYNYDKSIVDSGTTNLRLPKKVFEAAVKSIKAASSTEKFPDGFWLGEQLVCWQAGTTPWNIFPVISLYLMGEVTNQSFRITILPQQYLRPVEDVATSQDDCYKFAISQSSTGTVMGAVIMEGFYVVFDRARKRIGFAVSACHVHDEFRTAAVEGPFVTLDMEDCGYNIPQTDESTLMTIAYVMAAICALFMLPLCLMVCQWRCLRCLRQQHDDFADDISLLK

[3] = target: Recombinant CatD (Homo sapiens (Human), UniProt P07339); test: In vitro enzymatic Cathepsin D (CatD) FRET assay; format: biochemical; settings: pH 3.5, read-out: CatD Enzyme IC50
Method: In Vitro Enzymatic Cathepsin D (CatD) FRET Assay
Recombinant CatD was expressed in CHO cells. The assay buffer for CatD was 0.05 M citrate pH 3.5, 10% DMSO final, 5 mM CHAPS. The CatD enzyme (9 nM) was pre-incubated for one hour with inhibitors, typically in about 1 uL of DMSO according to a serial dilution, is added thereto. The assays was effectively started by the addition of different FRET substrates (20 nM for CatD) and the combination was incubated for one hour. The FRET assay was terminated with by addition of tris buffer, which raises the pH to neutrality, and the fluorescence was determined. The FRET substrate was a peptide with commercially available fluorophore and quencher, on opposite sides of the CatD cleavage site. The CatD substrate peptide sequence was based on sequence #1 of Table 1 from Gulnik et al., FEBS Lett. 413(2):379-384 (1997). Proteolytic cleavage of the FRET substrate released quenching of fluorescence (CatD excitation 500 nm and emission 580 nm).
The in vitro CatD FRET assay data for each of the Examples is provided in Table 2, conducted by the first procedure described above. […] Thus, with this surprising selectivity profile, the compounds provided herein are believed to minimize, reduce or completely eliminate any risk of retinal atrophy and abnormal development of the eye and of the retinal pigmented epithelium as it relates to the normal function and activity of CatD.

[4] = target: T1, BACE1; test: In vitro enzymatic BACE1 FRET assay; format: biochemical; settings: pH 4.5, read-out: BACE1 Enzyme IC50
Method: as §1, §2
Target sequence in this assay (P56817 46-501): as the sequence (P56817 46-501, species assumed) above

[5] = repeated doses up to 200 mg, phase I clinical trial; cited from earlier work
[6] = test system: Aβ peptide; settings: nonhuman primates; cited from earlier work
[7] = test system: Aβ peptide; settings: oral dose of 95 mg once daily; cited from earlier work
[8] = in vivo; cited from earlier work
[9] = test system: pigment epithelium of the rat's eye; settings: higher compound dose given for three months; cited from earlier work
[10] = phase I clinical trials; cited from earlier work
[11] = test system: Aβ peptide; settings: sustained and dose-dependent manner; cited from earlier work

Sequence of Recombinant CatD (P07339 65-412): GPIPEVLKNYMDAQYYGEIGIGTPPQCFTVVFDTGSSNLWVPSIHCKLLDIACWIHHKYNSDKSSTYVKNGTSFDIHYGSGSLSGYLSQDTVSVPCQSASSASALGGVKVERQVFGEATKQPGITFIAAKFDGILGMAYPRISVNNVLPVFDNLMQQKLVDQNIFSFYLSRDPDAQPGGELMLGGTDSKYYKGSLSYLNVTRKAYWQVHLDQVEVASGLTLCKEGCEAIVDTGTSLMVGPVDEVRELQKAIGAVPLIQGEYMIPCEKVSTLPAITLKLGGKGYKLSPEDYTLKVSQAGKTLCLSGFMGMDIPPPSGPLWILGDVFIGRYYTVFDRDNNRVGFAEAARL
Sequence of human recombinant BACE2 (Q9Y5Z0 63-518): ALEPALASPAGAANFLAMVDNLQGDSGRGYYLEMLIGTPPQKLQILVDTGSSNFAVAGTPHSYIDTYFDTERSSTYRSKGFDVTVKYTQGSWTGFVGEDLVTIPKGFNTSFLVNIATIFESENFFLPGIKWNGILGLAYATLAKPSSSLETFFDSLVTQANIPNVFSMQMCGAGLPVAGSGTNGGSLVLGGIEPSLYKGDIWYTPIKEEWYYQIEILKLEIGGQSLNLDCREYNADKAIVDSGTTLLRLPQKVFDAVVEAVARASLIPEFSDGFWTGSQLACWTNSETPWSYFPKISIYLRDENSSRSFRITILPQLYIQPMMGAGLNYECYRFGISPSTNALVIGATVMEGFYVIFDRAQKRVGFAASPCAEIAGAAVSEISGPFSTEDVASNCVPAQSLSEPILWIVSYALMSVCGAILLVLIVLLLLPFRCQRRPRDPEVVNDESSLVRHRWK

C[C@]1(c2cc(/C=C(\F)c3ccc(C#N)cn3)ccc2F)N=C(N)OCC1(F)F [Example 114, (R,Z)-6-(2-(3-(2-amino-5,5-difluoro-4-methyl-5,6-dihydro-4H-1,3-oxazin-4-yl)-4-fluorophenyl)-1-fluorovinyl)nicotinonitrile]
IC50 [1]: 2730 nM
IC50 [2]: 2660 nM
IC50 [3]: > 400000 nM
IC50 [4]: 256 nM

C#CCOc1cnc(/C(F)=C/c2ccc(F)c([C@@]3(C)N=C(N)OCC3(F)F)c2)cn1 [Example 115, (R,Z)-5,5-difluoro-4-(2-fluoro-5-(2-fluoro-2-(5-(prop-2-yn-1-yloxy)pyrazin-2-yl)vinyl)phenyl)-4-methyl-5,6-dihydro-4H-1,3-oxazin-2-amine]
IC50 [1]: 5840 nM
IC50 [2]: 4660 nM
IC50 [3]: 119000 nM
IC50 [4]: 283 nM

C[C@]1(c2nc(/C=C(\F)c3ccc(C#N)cn3)ccc2F)N=C(N)OCC1(F)F [Example 116, (R,Z)-6-(2-(6-(2-amino-5,5-difluoro-4-methyl-5,6-dihydro-4H-1,3-oxazin-4-yl)-5-fluoropyridin-2-yl)-1-fluorovinyl)nicotinonitrile]
IC50 [1]: 11400 nM
IC50 [2]: 676 nM
IC50 [3]: > 400000 nM
IC50 [4]: 1050 nM

C[C@@]1(c2nc(/C=C(\F)c3ccc(C#N)cn3)ccc2F)CO[C@@](C)(C(F)(F)F)C(N)=N1 [Example 117, 6-((Z)-2-(6-((3R,6R)-5-amino-3,6-dimethyl-6-(trifluoromethyl)-3,6-dihydro-2H-1,4-oxazin-3-yl)-5-fluoropyridin-2-yl)-1-fluorovinyl)nicotinonitrile]
IC50 [1]: 853 nM
IC50 [2]: 90 nM
IC50 [3]: 121000 nM
IC50 [4]: 149 nM

C[C@H]1OC[C@]2(c3cc(NC(=O)c4cnc(C(F)F)cn4)ccc3F)N=C(N)SC[C@H]12 [Example E2609]
clinical safety [5]: did not show clinical significant safety concerns
reduction in Aβ peptide levels in the CSF and plasma [6]: significant reduction

C[C@@]1(c2cc(NC(=O)c3ccc(C#N)cn3)ccc2F)C=CSC(N)=N1 [JNJ-54861911]
Aβ peptide reduction in CSF [7]: up to 95%
ability to cross the blood-brain barrier [8]: demonstrated an ability to cross the blood-brain barrier

C[C@@]1(c2cc(-c3cncnc3)c(F)cc2F)CCSC(N)=N1 [LY 2811376]
eye toxicity finding [9]: damaged the pigment epithelium of the rat's eye

CN1C(=N)N[C@](C)(c2cc(NC(=O)c3ccc(F)cn3)ccc2F)CS1(=O)=O [MK-8931]
safety profile [10]: excellent safety profile with no immediately noticeable side effects
CSF Aβ peptide concentrations [11]: significantly reduced CSF Aβ peptide concentrations
